From a melting point compilation (Tetko et al.)

melting point [°C]	SMILES
157 to 159	O=C(CCl)NC(=O)c1ccccc1
143 to 145	C=CCN1C(=O)C(=O)N(CC(=O)O)C1=O
120 to 122	CCCCn1c(SCC(=O)O)nc2cc(C(F)(F)F)ccc21
29 to 31	O=C(O)C1CC1C1CC1 (stereo not drawn)
139 to 141	CNC(=O)NC(C)(C)C(=O)O
165 to 167	Nc1c(-c2ccco2)nc2ccccn12
186 to 188	Cn1nc(I)c2ncccc21
93 to 95	CCOC(=O)c1c(-c2ccc(C)o2)csc1N
114 to 116	O=C(O)CCCOc1ccc(Cl)cc1
129 to 131	CC(Oc1ccc(C#N)cc1)C(=O)NN (stereo not drawn)
197 to 199	Cc1nn(C)c2c1NC(=O)CS2
170 to 172	Nc1nc(CCl)nc(Nc2ccc(F)cc2)n1
143 to 145	O=S1(=O)CCNCN1
210 to 212	NC(CSCCc1ccccc1)C(=O)O (stereo not drawn)
57 to 58	COc1ccnc(Cl)n1
98 to 100	COc1ccc(NC(=O)CCl)c([N+](=O)[O-])c1
94 to 96	COC(=O)c1cc2ccccn2c1
95 to 101	CCN(CC)S(=O)(=O)c1cccc(-c2nnc(S)o2)c1
205 to 207	O=S(=O)(c1cccc(-c2nnc(S)o2)c1)N1CCCCC1
97 to 99	CNC(=O)C1Cc2ccccc2CN1 (stereo not drawn)
135 to 137	Cc1ccc(C)c(OCc2nnc(S)o2)c1
84 to 86	CC(COc1ccccc1)C(=O)O (stereo not drawn)
66 to 68	CS(=O)(=O)c1cccc(C(=O)c2ccc(F)cc2)c1
104 to 106	Nc1ncccc1OCc1cccnc1

melting point [°C]	SMILES
58 to 60	CC(C)(C)c1cc([N+](=O)[O-])c(O)c(C(C)(C)C)c1
55 to 59	N#Cc1ccc(OCCBr)cc1
63 to 65	CC(=O)CC(=O)c1ccncc1
110 to 113	Nn1c(S)nnc1-c1ccccc1Cl
45 to 47	Cc1nc(-c2cccc(NC(=O)CCl)c2)cs1
179 to 181	Cc1ccc(C(=O)O)cc1S(=O)(=O)N1CCCCC1
93 to 95	FC(F)(F)Cn1cnnc1S
155 to 157	CC(=O)Nc1ccc(Br)cc1N
77 to 79	CS(=O)(=O)CCCOc1cccc2c1CCC2O (stereo not drawn)
79 to 81	OC1COc2ccc(Br)cc21 (stereo not drawn)
63 to 65	NCc1ccnc(N2CCCC2)n1
64 to 66	CC(CO)CC(C)(C)N (stereo not drawn)
71 to 73	Nc1cnccc1SCCCO
199 to 201	Cc1nc(Cl)c2cc[nH]c2n1
202 to 204	O=C(O)c1cc(-c2ccccc2)cc(Cl)c1O
134 to 136	CC(C)(C)NC(=O)N1CCCc2c(C(=O)O)cccc21
146 to 148	CC(C)(C)c1ccc2oc(N)nc2c1
75 to 77	CC(Cl)C(=O)NCc1ccccc1 (stereo not drawn)
214 to 216	O=C(O)CC1C(=O)Nc2ccccc21 (stereo not drawn)
261 to 263	O=C(O)CNC(=O)c1ccc(C(=O)NCC(=O)O)cc1
67 to 69	COC(=O)C1CSCCC1=O (stereo not drawn)
140 to 142	CC(C)(C)OC(=O)N1CC(=CC(=O)O)C1
30 to 32	CCOC(=O)COc1ccc(Br)cc1F
79 to 81	COc1cc(C=O)ccc1OCc1cccs1

melting point [°C]	SMILES
124 to 126	COc1ccc(-c2csc(NC(=O)C(C)Cl)n2)cc1 (stereo not drawn)
158 to 160	COC(=O)Cn1nc2ccc(Cl)nn2c1=O
133 to 135	Cc1[nH]c2ccccc2c1C(=O)C(C)Cl (stereo not drawn)
109 to 111	Cc1cnc2c(c1)NCCO2
74 to 76	CSc1ccc2c(c1)CCCC2=O
109 to 111	Nc1cc(=O)[nH]n1-c1ccccc1
189 to 191	Cc1nnc(-c2cccc(N)c2)n1C
89 to 91	CCc1ccccc1NC(=O)CC(C)=O
210 to 212	Nc1nncn1Cc1ccccc1
153 to 155	NS(=O)(=O)c1ccc(F)cc1[N+](=O)[O-]
< 17	Cc1cccc(-c2nnc(C(C)Cl)o2)c1 (stereo not drawn)
132 to 134	NC(=NO)c1cccc(Br)c1
134 to 136	Cc1ccc(CNC(=O)C2CCNCC2)cc1F
309 to 311	Cc1c(C(=O)O)sc2[nH]cnc(=S)c12
159 to 161	O=C(O)c1csc2c1CCCC2
239 to 241	O=C(O)CN1C(=O)c2cccnc2C1=O
100 to 102	C=CCNS(=O)(=O)c1ccccc1F
211 to 213	CC(C)(C)S(=O)(=O)Cc1ccc(N)cc1
49 to 51	CCOc1ccc(O)c(C=O)c1
67 to 69	N#Cc1ccc(Oc2ccc(Cl)cc2)c(F)c1
108 to 110	Cc1csc(=O)n1CCC(=O)O
249 to 251	Sc1nnc(-c2cc3ccccc3o2)o1
137 to 139	Cn1cc(CCC(=O)O)cn1
270 to 272	NC1=C(c2nc3ccccc3[nH]2)C(=O)CN1NC(=O)c1cccs1

melting point [°C]	SMILES
199 to 201	Cc1sc2[nH]c(=O)oc(=O)c2c1C
225 to 227	Cc1nc(C(=O)O)nn1-c1nnc[nH]1
58 to 60	COc1ccc(C(N)c2ccccc2OC)cc1 (stereo not drawn)
70 to 72	CNS(=O)(=O)c1c(C)noc1C
89 to 91	CCN(CC)S(=O)(=O)c1ccc(OC(C)C)c(N)c1
49 to 51	Brc1ccc(OCC2CO2)cc1 (stereo not drawn)
87 to 89	Nc1ncc(Br)cc1F
237 to 239	Cc1nnc(NN)[nH]c1=O
94 to 96	O=Cc1cc(Cl)c2ccccc2c1O
156 to 158	Cn1cc(C=O)c(-c2ccc(C#N)cc2)n1
89 to 91	O=C1CC2CCC(C1)N2c1ccccc1
149 to 151	O=C(NO)c1c(F)cccc1Cl
164 to 166	O=C(O)C1CCN(c2ccccc2Br)C1=O (stereo not drawn)
165 to 167	COc1ccc(C(=O)NCC(=O)O)cc1
49 to 51	CCc1c(N)cnn1C
74 to 76	NCc1ccc(N2CC=CC2)cc1
79 to 81	CCOC(=O)c1cc(Br)ccc1N
104 to 106	CC(C)(C)OC(=O)NCc1cn[nH]c1
274 to 276	NS(=O)(=O)c1ccc(C(=O)O)cc1F
159 to 161	Cn1c(C(=O)O)ccc1-c1ccc(F)cc1
97 to 99	CCOC(=O)c1ccn(-c2cccc(N)c2)n1
89 to 91	Clc1ccc2nc(Cl)nc(Cl)c2c1
129 to 131	Cc1ccc(C)c(-n2nnnc2S)c1
316 to 318	CNc1ncnc2nc[nH]c12

melting point [°C]	SMILES
82 to 84	ON=C1CCC1
86 to 88	O=C(O)CCC=Cc1ccccc1
43 to 45	N#CC1(N2C(=O)C=CC2=O)CCCC1
250 to 252	O=C(O)c1c[nH]c2ccccc2c1=O
117 to 119	CN(C)c1ccc(C(N)=S)cc1
57 to 59	ClCc1cnc(-c2ccccc2)s1
126 to 128	N#Cc1cc2c(nc1Cl)CCC2
193 to 195	O=C(O)C1CCCN1C(=O)C12CC3CC(CC(C3)C1)C2 (stereo not drawn)
181 to 183	Nc1ccc(F)c(N2CCS(=O)(=O)CC2)c1
178 to 183	O=S(=O)(c1cccc2c1N=S=N2)N1CCNCC1
203 to 207	Cc1ccccc1Nc1nc(N)nc(CCl)n1
79 to 81	COC(=O)Nc1ccc(CO)cc1
197 to 199	CC1(c2ccc3c(c2)OCO3)NC(=O)NC1=O (stereo not drawn)
111 to 113	O=S1(=O)CC(O)C(S(=O)(=O)Cl)C1 (stereo not drawn)
80 to 82	COc1cc(F)c(N)cc1F
163 to 165	O=C1OCCN1c1ccc(Cl)c([N+](=O)[O-])c1
233 to 235	CC(C)C(=O)Nc1cc(C(=O)O)c(F)cc1F
147 to 149	CC(C)(C)n1cc(C#N)cc1NC(=O)OCC(F)(F)F
89 to 91	Nc1c(Cl)ccc2nsnc12
233 to 235	Cc1cc(C(=O)O)c2c(C)noc2n1
116 to 118	O=C(O)C1CC=CCC1C(=O)N1CCCC1 (stereo not drawn)
188 to 190	O=C(O)C(=O)Cc1ccc2ccccc2c1
55 to 57	CCOc1cccc(C=O)n1
93 to 95	COc1ccccc1CN1C(=O)C=CC1=O

melting point [°C]	SMILES
173 to 175	Cc1nn(-c2cncc3nnnn23)c(C)c1CC(=O)O
78 to 80	N#Cc1cc(N)ccc1OCC(F)(F)F
210 to 212	Cn1cc(C(=O)O)c(C(F)(F)F)n1
292 to 294	O=C(O)c1ccccc1C(=O)Nc1ccc(-c2ccccc2)cc1
169 to 171	NC(=O)c1ccc(NCc2ccccc2)c(N)c1
85 to 87	CC(C)n1ncc2cc(N)cnc21
107 to 109	Nc1cccnc1Oc1ccccc1
283 to 285	Nc1nc(-c2ccc(N3CCCC3=O)cc2)cs1
84 to 86	CC(C)OCc1cc(C(=O)O)ccc1F
153 to 155	NC(=NO)c1cccc(CN2CCCCC2)c1
115 to 117	O=C(O)C1CC1c1cccc(Br)c1 (stereo not drawn)
185 to 187	COC(=O)Cc1cc(=O)[nH]c(S)n1
249 to 251	CN(C)c1ccc(-n2ccnc2S)cc1
198 to 200	Cc1cc(=O)[nH]c(SCC(=O)O)c1C#N
185 to 187	O=C(Nc1ccc2[nH]ccc2c1)c1ccc(F)cc1Br
314 to 316	Nc1n[nH]c2nc3ccccc3cc12
138 to 140	CC(=O)N(c1ccc(C(F)(F)F)cc1)c1nc(C=O)cs1
153 to 155	COc1cc(C(=O)O)ccc1OC1CCCC1
124 to 126	CNc1nc(-c2ccccc2)no1
135 to 137	Cc1cc(S(=O)(=O)Cl)ccc1OCCCC(=O)O
159 to 161	CN(C)C=Nc1[nH]ncc1C#N
196 to 198	CN(C)C1(C(=O)O)CCCSC1 (stereo not drawn)

SMILES	melting point [°C]
CCCn1c(C)c(C(=O)OCC)c2cc(O)ccc21	179 to 181
O=Cc1cnn(Cc2ccccc2)c1	43 to 45
COc1ccc(CN2CCNCC2)cc1OC	27 to 40
N#Cc1c(O)c(Cl)c(Cl)c(C#N)c1Cl	256 to 258
N#Cc1ccc(NC(=O)CCCl)cc1Cl	156 to 158
N#CSc1ccc(N)cc1	43 to 56
